# Values quoted from earlier work as cited in patent US12138235B2, “Cape-loaded targeted microvesicular cancer drug and method for developing the same” (YEDITEPE UNIVERSITESI, priority 2017, dated 2024).
# Experiments:
# [1] = tested on: TW2.6 oral squamous cell carcinoma cell line; details: CAPE 100 μM
# [2] = tested on: ME180 cervical cancer cell lines; details: CAPE 50 μM
# [3] = tested on: MCF-7, MDA-MB-231 and TNBC breast cancer cell lines; details: CAPE 40 μM
# [4] = rats, prophylactic administration
# [5] = tested on: SH-SY5Y neuroblastoma cell line; details: CAPE 4-20 μM
# [6] = rats
# breast cancer stem cells = details: CAPE 40 μM
# [7] = tested on: SK-1 Hep1 liver cancer cell line; details: combined treatment of CAPE 30 μg/ml and TRAIL
# [8] = tested on: LNCaP, DU-145 and PC-3 prostate cancer cell lines
smiles,measurement,setting,value
"O=C(/C=C/c1ccc(O)c(O)c1)OCCc1ccccc1 [CAPE, caffeic acid phenethyl ester]",cell cycle phase populations and apoptosis,[1],"decreased G1 phase cell population, increased G2/M phase cell population and induced apoptosis"
same,"proliferation, cell cycle arrest, apoptosis",[2],prevents proliferation by inducing S and G2/M phase cell cycle arrests and induces apoptosis
same,"cell proliferation, cell cycle arrest, apoptosis, angiogenesis",[3],"dose-dependently stops cell proliferation, induces cell cycle arrest and apoptosis, and suppresses angiogenesis"
same,"damage caused by doxorubicin in kidney, heart and brain tissues",[4],prevented the damage
same,liver damage depending on administration of cisplatin and tamoxifen,[4],prevented the damage
same,effect in SH-SY5Y cells,[5],no effect was observed
same,radiation induced lung injury,[6],decreased radiation induced lung injury
same,proliferation of breast cancer stem cells,breast cancer stem cells,inhibits proliferation of breast cancer stem cells
same,"caspase activation, cell death receptors, apoptosis",[7],"caspase activation increased, cell death receptors were activated via JNK and p38 signaling pathways and apoptosis was induced"
same,cell proliferation and Akt signaling pathway,[8],dose-dependently inhibits cell proliferation
